Experimental findings from patent US20040002521A1, “Cyclopropanecarboxylic acid amide compound and pharmaceutical use thereof” (AJINOMOTO CO. INC, priority 2000, published 2004) are described below.

In brackets after ≈: the same amount, converted by molar mass.

The assay has as its system NF-kappa B. The assay can be described thus: Evaluation of NF-kappa B inhibition (β-gal reporter driven by 6 NF-kappa B binding sequences in immortalized HUVEC, IL-1β induced). In kind it is cell-based. Conditions: Homo sapiens; HUVEC reporter cells; compound added 30 minutes before IL-1β; β-gal activity determined after 16 hours; read-out: NF-kappa B Inhibitory Activity: IC50. An excerpt: Evaluation of NF-kappa B Inhibition
In this evaluation, there were used cells obtained by stably introducing β-galactosidase (β-gal) gene of Escherichia coli, which was driven by an SV40 minimum promoter produced by fusing 6 NF-kappa B binding sequences derived from the kappa light chain enhancer of immunoglobulin arranged in a tandem to human normal umbilical venous endothelial cells (HUVEC) immortalized with an SV40 large-sized T-antigen. These cells were subjected to the subculture in an RPMI culture medium supplemented with 10% FBS (fetal bovine serum) and the cells were inoculated in wells of a 96-well plate in a concentration of 1×10^4 cells/well on the day before the initiation of the experiments. Each candidate compound of the present invention was dissolved in DMSO in an adequate concentration and then added to each well of the 96-well plate in such a manner that the final concentration of DMSO was adjusted to a level of not more than 1%. After 30 minutes from the addition of the compound, a […] IL-1β was added to each well to a final concentration of 50 ng/ml to thus induce the NF-kappa B activity and the β-gal activity was determined after 16 hours therefrom. The β-gal activity was determined using a chemiluminescent substrate (Galacton-Light-Plus available from Boehringer Manheim Company), which was used according to the protocols annexed to the reagent, and Luminescencer (available from ATO Company).
For `CC1(C)CC1C(=O)Nc1ccc(Oc2ccc(Cl)cc2)cc1` (stereo not shown) [Example 9, 2,2-Dimethyl-cyclopropanecarboxylic acid [4-(4-chlorophenoxy)-phenyl]-amide], the IC50 (commonly the concentration that gives 50% inhibition) worked out at 5 µg/mL (≈ 15.8 µM).
The value for `CC1(C)CC1C(=O)Nc1ccc(Cc2ccccc2)cc1` (stereo not shown) [Example 1, 2,2-Dimethyl-cyclopropanecarboxylic acid (4-benzylphenyl)-amide] was 3 µg/mL (≈ 10.7 µM); that for `CC1(C)CC1C(=O)Nc1ccc(Nc2ccccc2)cc1` (stereo not shown) [Example 12, 2,2-Dimethyl-cyclopropanecarboxylic acid (4-phenylamino-phenyl)-amide] was 2 µg/mL (≈ 7.13 µM).
With `Cc1ccc(NC(=O)C2CC2(C)C)cc1` (stereo not shown) [Example 2, 2,2-Dimethyl-cyclopropanecarboxylic acid p-tolylamide], the IC50 was determined as 3 µg/mL (≈ 14.8 µM).
